Like-named read-outs stand apart in the source and are kept apart here.
Experiments:
[1] = Compound stability test in plasma (rat); assay type: in vitro ADME, SD rat
Procedure: In this study, mouse, SD rat, Beagle, cynomolgus monkey and human plasma were used as materials to investigate the stability of the tested compounds in the plasma of the above five species. Propantheline, Enalapril, Bisacodyl and Procaine were used as control compounds.
The experimental conditions for the test compounds were as follows: • test concentration: 2 μM (DMSO ≤0.5%); • incubation times: 0, 10, 30, 60 and 120 minutes; • frozen plasma (from multiple species) was used in the test system; • incubation conditions: 37° C.
The mixed frozen plasma was thawed in a 37° C. water bath prior to the experiment. Plasma was centrifuged at 4000 rpm for 5 minutes and cleared if there was a clot. The pH will be adjusted to 7.4±0.1 if required.
The intermediate solution of 1 mM compound and positive control was prepared by diluting 10 mM stock solution with 90 μL of dimethyl sulfoxide. 100 μM solution was prepared by diluting 20 μL of intermediate solution (1 mM) with 180 μL of 45% methanol/water.
2 μL of 100 μM solution was added to 98 μL of blank plasma to achieve a final concentration of 2 μM (in duplicate) of the sample, and the sample was incubated in a 37° C. water bath. At each time point (0, 10, 30, 60 and 120 min), 400 μL of termination solution (200 ng/mL toluenesulfonylurea and 200 ng/mL labetalol, 50% ACN/MeOH) was added to precipitate the proteins and mixed thoroughly. […]

[2] = Pharmacokinetic study, single intravenous and oral administration in Beagle dogs; assay type: in vivo; settings: dog, plasma; for AUC(0-t): read-out: Exposure of AUC0-last
Procedure: The purpose of this experiment was to investigate the pharmacokinetics (PK) of the compounds in different species after single intravenous and single oral administration of the test compounds.
After intravenous or oral administration, blood samples were collected from the animals, and the actual time of blood collection was recorded. After the blood samples were collected, the samples were immediately transferred to the labelled centrifuge tube containing K2-EDTA, and then centrifuged to obtain plasma. Plasma was transferred to pre-cooled centrifuge tubes, quick-frozen in dry ice and stored in an ultra-low temperature refrigerator at −70±10° C. until LC-MS/MS analysis was performed.
The plasma drug concentration data of the compounds were processed using pharmacokinetic software with a non-compartmental model. The peak concentration (Cmax) and time to peak (Tmax), as well as the quantifiable end time were obtained directly from the plasma concentration-time curve. The following pharmacokinetic parameters were calculated using the log-linear trapezoidal method: half-life (T1/2), apparent volume of distribution (Vdss), and clearance (Cl), area under the time-plasma concentration curve from point 0 to the end time point (AUC0-last), and initial concentration (C0).

[3] = system: H1975 (L858R/T790M) cells; assay: Anti-proliferation activity test against H1975 cells; assay type: cell-based; settings: Homo sapiens, NCI-H1975, Cell-Titer Glo, 72 hours
Procedure: (2) Anti-Proliferation Activity Test of the Compound Against H1975 Cells and IC50 Test of Anti-Proliferation Activity Against A431 Cells
RPMI1640 medium, FBS fetal bovine serum, trypsin-EDTA, were all purchased from Giboco. DPBS was purchased from Corning, penicillin/streptomycin solution was purchased from Hyclone, and Cell-Titer Glo reagent was purchased from Promega (1kit, Cat. No. G7571). Plate reading instrument: Envision (PerkinElmer).
384-well plates in columns 1, 2, and 24 were added with 45 μL of medium, and the cell suspension was dispensed with Multi-drop at 45 μL per well (1000 cells) and incubated overnight in an incubator. The compound was added to the source plate according to the Echo dispensing requirements, the compound in the source plate was added to the inter plate and diluted to an intermediate concentration, then the compound in the source plate and the inter plate was added to the cell plate, and the cells were continued to be incubated in a incubator for 72 hours. After 72 hours, Cell-Titer Glo reagent and cells were removed and equilibrated at room temperature for 30 min. 25 μL of Cell-Titer Glo reagent was dispensed into 384-well plates with Multi-drop, the cell plate was vibrated at medium speed for 3 min, centrifuged at 1000 rpm for 2 min, and stood for 10 min. The plate was read by Envision (Luminescence). […]

With C=CC(=O)Nc1cc(Nc2ncc(C(=O)OC(C)C)c(-c3cn(OC)c4ccccc34)n2)c(OC)cc1N(C)CCN(C)C.CS(=O)(=O)O [Compound 1] the “In vitro plasma stability (Residual percentage)” value ([1]; 120 minutes, 2 μM, 37° C.) was 87.9%, the half-life at 2 µM ([1]; Sprague-Dawley (SD), pH 7.4, 37° C., read-out: In vitro plasma half-life T1/2) was > 4.82 h and the clearance ([2]; intravenous injection 2 mg/kg) was 12.7 mL/min/kg. For the same molecule, the half-life ([2]; intravenous injection 2 mg/kg) was 8.79 h, the AUC ([2]; intravenous injection 2 mg/kg, read-out: Exposure of AUC) was 3.85 µM·h and the Vd ([2]; intravenous injection 2 mg/kg, read-out: Vdss) was 7.98 L/kg. It also gave a bioavailability ([2]; oral 10 mg/kg) of 53.5%, an AUC(0-t) ([2]; oral 10 mg/kg) of 10.3 µM·h and a bioavailability ([2]; oral 50 mg/kg) of 36.6%. It also gave an AUC(0-t) ([2]; oral 50 mg/kg) of 35.3 µM·h and an IC50 [3] of 15.3 nM.
